Experimental data taken from ChEMBL document CHEMBL4433195, “Biphenyloxy-alkyl-piperidine and azepane derivatives as histamine H3 receptor ligands” (Bioorg Med Chem, 2017).
One block for each compound: values may come before it.

Legend:
Histamine H3 receptor [1] = biological target: T1, Histamine H3 receptor (Homo sapiens, UniProt Q9Y5N1); assay: Displacement of [3H]-N-alpha-methylhistamine from human recombinant full length H3R expressed in HEK293 cell membranes incubated for 90 mins by liquid scintillation counting method
T1 sequence (Q9Y5N1 whole entry): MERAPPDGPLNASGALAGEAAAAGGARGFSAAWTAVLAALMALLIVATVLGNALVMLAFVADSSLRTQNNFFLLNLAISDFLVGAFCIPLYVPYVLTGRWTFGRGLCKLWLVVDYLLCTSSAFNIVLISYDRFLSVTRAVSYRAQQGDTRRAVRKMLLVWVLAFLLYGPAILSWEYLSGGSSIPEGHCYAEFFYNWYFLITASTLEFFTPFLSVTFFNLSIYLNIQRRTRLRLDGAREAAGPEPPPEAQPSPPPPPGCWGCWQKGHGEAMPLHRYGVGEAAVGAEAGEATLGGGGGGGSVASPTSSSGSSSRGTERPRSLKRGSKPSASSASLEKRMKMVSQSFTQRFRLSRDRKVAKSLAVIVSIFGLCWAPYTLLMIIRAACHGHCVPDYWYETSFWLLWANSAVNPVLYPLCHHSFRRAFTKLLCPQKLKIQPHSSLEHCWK

Histamine H4 receptor [2] = biological target: T2, Histamine H4 receptor (Homo sapiens, UniProt Q9H3N8); assay: Displacement of [3H]histamine from human recombinant H4R expressed in CHO cells incubated for 60 mins by microbeta scintillation counter method; assay type: cell-based
[3] = Metabolic stability in human recombinant liver microsomes assessed as retention time at 50 uM preincubated for 5 mins followed by NADPH addition and measured after 120 mins by UPLC-MS analysis; assay type: ADME, Microsome; conditions: 2 h
[4] = Ratio of test compound IC50 to doxorubicin IC50 for cytotoxicity against human HepG2 cells assessed as cell viability incubated for 72 hrs by cellTiter 96 AQueous non-radioactive cell proliferation assay; assay type: cell-based; conditions: read-out: Ratio IC50
HepG2 = assay: Cytotoxicity against human HepG2 cells assessed as cell viability incubated for 72 hrs by cellTiter 96 AQueous non-radioactive cell proliferation assay; assay type: cell-based; conditions: HepG2, 72 h
Cytochrome P450 3A4 [5] = biological target: T3, Cytochrome P450 3A4 (Homo sapiens, UniProt P08684); assay: Activation of human recombinant CYP3A4 using luciferin as substrate at 12.5 to 25 uM preincubated for 10 mins followed by substrate addition and measured after 50 mins in presence of NADPH by CYP450-Glo assay; assay type: ADME; conditions: recombinant enzyme
T3 sequence (P08684 whole entry): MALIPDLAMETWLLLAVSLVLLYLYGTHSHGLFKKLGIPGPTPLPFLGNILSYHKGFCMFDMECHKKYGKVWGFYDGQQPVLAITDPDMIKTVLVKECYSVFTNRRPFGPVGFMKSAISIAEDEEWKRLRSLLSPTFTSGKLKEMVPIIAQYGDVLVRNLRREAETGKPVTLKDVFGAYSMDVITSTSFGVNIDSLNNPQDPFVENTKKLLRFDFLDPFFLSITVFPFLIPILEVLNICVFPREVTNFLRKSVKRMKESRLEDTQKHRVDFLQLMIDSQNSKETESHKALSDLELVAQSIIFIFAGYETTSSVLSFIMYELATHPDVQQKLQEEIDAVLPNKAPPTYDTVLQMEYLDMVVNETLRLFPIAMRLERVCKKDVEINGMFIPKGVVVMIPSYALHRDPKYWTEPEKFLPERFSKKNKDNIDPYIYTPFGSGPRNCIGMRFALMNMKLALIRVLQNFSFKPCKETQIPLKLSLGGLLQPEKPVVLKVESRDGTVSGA

[6] = biological target: Muscarinic acetylcholine receptor M3 (Cavia porcellus) (UniProt Q8VH26); assay: Antagonist activity at muscarinic M3 receptor in guinea-pig ileum assessed as inhibition of carbachol-induced contractions incubated for 15 mins; assay type: tissue-based
Chain of Muscarinic acetylcholine receptor M3 (Cavia porcellus) (Q8VH26 1-587): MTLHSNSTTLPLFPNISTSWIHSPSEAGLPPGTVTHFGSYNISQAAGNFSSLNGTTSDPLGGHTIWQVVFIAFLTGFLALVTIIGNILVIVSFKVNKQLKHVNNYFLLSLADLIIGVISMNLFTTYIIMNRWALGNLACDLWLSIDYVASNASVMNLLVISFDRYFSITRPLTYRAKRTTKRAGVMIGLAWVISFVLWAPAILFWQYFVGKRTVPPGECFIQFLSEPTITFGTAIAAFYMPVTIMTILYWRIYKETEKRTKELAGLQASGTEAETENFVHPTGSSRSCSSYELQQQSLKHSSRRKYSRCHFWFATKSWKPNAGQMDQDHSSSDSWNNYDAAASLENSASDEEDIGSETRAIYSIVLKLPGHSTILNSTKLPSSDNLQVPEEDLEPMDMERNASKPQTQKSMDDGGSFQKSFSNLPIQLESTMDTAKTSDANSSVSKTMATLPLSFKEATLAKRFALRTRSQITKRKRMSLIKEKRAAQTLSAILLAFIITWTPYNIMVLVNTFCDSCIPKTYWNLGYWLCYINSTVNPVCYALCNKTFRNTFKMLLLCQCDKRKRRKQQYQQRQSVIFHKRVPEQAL

[7] = Metabolic stability in human recombinant liver microsomes assessed as metabolite M formation at 50 uM preincubated for 5 mins followed by NADPH addition and measured after 120 mins by UPLC-MS analysis; assay type: ADME, Microsome; conditions: 2 h
Cytochrome P450 2D6 = Cytochrome P450 2D6 (Homo sapiens, UniProt P10635); assay: Inhibition of human recombinant CYP2D6 at >2.5 uM using luciferin as substrate preincubated for 10 mins followed by substrate addition and measured after 50 mins in presence of NADPH by CYP450-Glo assay; assay type: ADME; conditions: recombinant enzyme
Chain of Cytochrome P450 2D6 (P10635 whole entry): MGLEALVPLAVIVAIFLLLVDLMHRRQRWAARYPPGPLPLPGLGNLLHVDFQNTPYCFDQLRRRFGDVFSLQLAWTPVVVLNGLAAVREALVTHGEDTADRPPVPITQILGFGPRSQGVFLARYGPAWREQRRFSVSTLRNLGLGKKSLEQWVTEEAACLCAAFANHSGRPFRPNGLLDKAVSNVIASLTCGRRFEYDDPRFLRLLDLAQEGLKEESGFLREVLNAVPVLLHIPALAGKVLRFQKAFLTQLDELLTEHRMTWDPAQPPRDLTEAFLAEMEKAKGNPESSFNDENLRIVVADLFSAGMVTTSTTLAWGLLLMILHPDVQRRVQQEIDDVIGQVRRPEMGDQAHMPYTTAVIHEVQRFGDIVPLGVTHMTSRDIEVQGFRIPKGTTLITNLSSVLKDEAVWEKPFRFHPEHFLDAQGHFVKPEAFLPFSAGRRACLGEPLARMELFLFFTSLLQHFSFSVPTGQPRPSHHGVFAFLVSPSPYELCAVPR

[8] = Mutagenicity in Salmonella typhimurium TA100 assessed as fold increase in number of positive wells over the solvent control baseline upto 10 uM incuabted for 90 mins and measured after 48 hrs by Ames test; assay type: toxicity; conditions: salmonella enterica subsp. enterica serovar typhimurium
[9] = biological target: Histamine H1 receptor (Cavia porcellus) (UniProt P31389); assay: (§1) Antagonist activity at histamine H1 receptor in guinea-pig ileum assessed as inhibition of histamine-induced contractions incubated for 15 mins; assay type: tissue-based
Chain of Histamine H1 receptor (Cavia porcellus) (P31389 whole entry): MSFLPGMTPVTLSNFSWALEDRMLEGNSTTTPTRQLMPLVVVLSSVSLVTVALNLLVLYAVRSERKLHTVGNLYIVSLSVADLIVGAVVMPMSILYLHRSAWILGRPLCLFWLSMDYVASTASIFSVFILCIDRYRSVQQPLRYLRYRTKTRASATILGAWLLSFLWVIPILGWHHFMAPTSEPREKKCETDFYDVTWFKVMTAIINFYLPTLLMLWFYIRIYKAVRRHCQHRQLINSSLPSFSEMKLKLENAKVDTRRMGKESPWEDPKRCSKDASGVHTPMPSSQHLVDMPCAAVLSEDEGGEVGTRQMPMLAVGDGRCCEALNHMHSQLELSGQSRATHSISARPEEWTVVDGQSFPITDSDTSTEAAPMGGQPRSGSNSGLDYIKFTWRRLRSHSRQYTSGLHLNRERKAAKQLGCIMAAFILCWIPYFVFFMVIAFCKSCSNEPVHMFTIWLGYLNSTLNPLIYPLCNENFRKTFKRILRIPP

Histamine H1 receptor [10] = biological target: Histamine H1 receptor (Cavia porcellus, UniProt P31389); assay: as §1; assay type: tissue-based; conditions: read-out: pA2 (converted)
Chain of Histamine H1 receptor (Cavia porcellus, UniProt P31389) (P31389 whole entry): as above

Homo sapiens = organism: Homo sapiens; assay: Selectivity ratio of Ki for human H4R to Ki for human H3R
Histamine H3 receptor [11] = biological target: T1, Histamine H3 receptor; assay: Antagonist activity at human H3R expressed in HEK293 cells assessed as reduction in R)(-)-alpha methylhistamine-induced inhibition of forskolin-induced cAMP accumulation by TR-FRET based LANCE ultra cAMP immunoassay; assay type: functional, cell-based
Cytochrome P450 3A4 [12] = biological target: T3, Cytochrome P450 3A4; assay: Inhibition of human recombinant CYP3A4 using luciferin as substrate at 0.025 to 25 uM preincubated for 10 mins followed by substrate addition and measured after 50 mins in presence of NADPH by CYP450-Glo assay; assay type: ADME; conditions: recombinant enzyme
[13] = Mutagenicity in Salmonella typhimurium TA98 assessed as fold increase in number of positive wells over the solvent control baseline upto 10 uM incuabted for 90 mins and measured after 48 hrs by Ames test; assay type: toxicity; conditions: salmonella enterica subsp. enterica serovar typhimurium
[14] = biological target: T4, Voltage-gated inwardly rectifying potassium channel KCNH2 (Homo sapiens, UniProt Q12809)
T4 sequence (Q12809 whole entry): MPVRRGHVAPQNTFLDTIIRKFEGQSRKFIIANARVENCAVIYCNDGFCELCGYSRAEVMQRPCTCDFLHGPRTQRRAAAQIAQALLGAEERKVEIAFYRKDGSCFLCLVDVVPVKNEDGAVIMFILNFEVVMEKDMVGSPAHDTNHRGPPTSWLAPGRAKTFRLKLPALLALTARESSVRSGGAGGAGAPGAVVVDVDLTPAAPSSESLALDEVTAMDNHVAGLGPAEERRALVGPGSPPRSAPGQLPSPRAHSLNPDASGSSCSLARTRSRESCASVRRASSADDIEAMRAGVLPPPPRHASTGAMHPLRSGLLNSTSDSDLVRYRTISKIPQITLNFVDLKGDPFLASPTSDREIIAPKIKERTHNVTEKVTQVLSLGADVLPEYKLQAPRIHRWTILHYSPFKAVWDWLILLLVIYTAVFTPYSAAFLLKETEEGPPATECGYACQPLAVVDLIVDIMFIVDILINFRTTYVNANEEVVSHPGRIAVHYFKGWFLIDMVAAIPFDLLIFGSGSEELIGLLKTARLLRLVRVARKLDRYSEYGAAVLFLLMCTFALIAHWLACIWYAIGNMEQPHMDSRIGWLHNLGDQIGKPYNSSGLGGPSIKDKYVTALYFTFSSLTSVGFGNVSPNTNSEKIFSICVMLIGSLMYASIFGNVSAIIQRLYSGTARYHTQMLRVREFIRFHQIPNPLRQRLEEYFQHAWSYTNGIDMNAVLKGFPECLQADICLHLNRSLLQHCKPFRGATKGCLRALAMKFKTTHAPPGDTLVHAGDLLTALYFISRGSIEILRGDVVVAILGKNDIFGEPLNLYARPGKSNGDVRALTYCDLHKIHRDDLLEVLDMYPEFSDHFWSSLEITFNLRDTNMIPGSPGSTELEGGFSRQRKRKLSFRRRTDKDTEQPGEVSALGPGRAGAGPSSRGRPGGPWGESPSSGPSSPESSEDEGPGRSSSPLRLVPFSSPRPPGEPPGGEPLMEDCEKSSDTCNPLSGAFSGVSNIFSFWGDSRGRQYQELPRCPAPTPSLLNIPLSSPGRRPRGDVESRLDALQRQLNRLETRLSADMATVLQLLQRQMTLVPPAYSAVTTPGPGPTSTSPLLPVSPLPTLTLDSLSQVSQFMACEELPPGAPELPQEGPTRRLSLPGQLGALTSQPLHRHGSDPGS

[15] = Metabolic stability in human recombinant liver microsomes assessed as metabolite M1 formation at 50 uM preincubated for 5 mins followed by NADPH addition and measured after 120 mins by UPLC-MS analysis; assay type: ADME, Microsome; conditions: 2 h
[16] = Metabolic stability in human recombinant liver microsomes assessed as metabolite M3 formation at 50 uM preincubated for 5 mins followed by NADPH addition and measured after 120 mins by UPLC-MS analysis; assay type: ADME, Microsome; conditions: 2 h
[17] = Metabolic stability in human recombinant liver microsomes assessed as metabolite M2 formation at 50 uM preincubated for 5 mins followed by NADPH addition and measured after 120 mins by UPLC-MS analysis; assay type: ADME, Microsome; conditions: 2 h
Rattus norvegicus [18] = organism: Rattus norvegicus; assay: Reversal of RAMH-induced dipsogenia in Wistar rat (Krf:(WI) WU) assessed as inhibition of RAMH-induced drinking response pretreated for 30 mins followed by RAMH stimulation for 20 mins and measured for 30 mins; assay type: functional
Rattus norvegicus [19] = assay: Reversal of RAMH-induced dipsogenia in Wistar rat (Krf:(WI) WU) assessed as inhibition of RAMH-induced drinking response at 1.25 mg/kg, ip pretreated for 30 mins followed by RAMH stimulation for 20 mins and measured for 30 mins; assay type: functional
[20] = Metabolic stability in rat liver microsomes assessed as metabolite M3 formation at 50 uM preincubated for 5 mins followed by NADPH addition and measured after 30 mins UPLC-MS analysis; assay type: ADME, Microsome; conditions: 0.5 h
[21] = Metabolic stability in rat liver microsomes assessed as metabolite M1 formation at 50 uM preincubated for 5 mins followed by NADPH addition and measured after 30 mins UPLC-MS analysis; assay type: ADME, Microsome; conditions: 0.5 h
[22] = Half life in rat liver microsomes measured up to 30 mins; assay type: ADME, Microsome
[23] = Metabolic stability in rat liver microsomes assessed as metabolite M2 formation at 50 uM preincubated for 5 mins followed by NADPH addition and measured after 30 mins UPLC-MS analysis; assay type: ADME, Microsome; conditions: 0.5 h
[24] = Intrinsic clearance in rat liver microsomes measured up to 30 mins; assay type: ADME, Microsome; conditions: read-out: CLH
[25] = Metabolic stability in rat liver microsomes assessed as retention time at 50 uM preincubated for 5 mins followed by NADPH addition and measured after 30 mins UPLC-MS analysis; assay type: ADME, Microsome; conditions: 0.5 h
Histamine H1 receptor [26] = biological target: Histamine H1 receptor (Homo sapiens, UniProt P35367); assay: Displacement of [3H]pyrilamine from human H1 receptor expressed in CHOK1 cells incubated for 60 mins by microbeta scintillation counter method; assay type: cell-based
Chain of Histamine H1 receptor (Homo sapiens, UniProt P35367) (P35367 whole entry): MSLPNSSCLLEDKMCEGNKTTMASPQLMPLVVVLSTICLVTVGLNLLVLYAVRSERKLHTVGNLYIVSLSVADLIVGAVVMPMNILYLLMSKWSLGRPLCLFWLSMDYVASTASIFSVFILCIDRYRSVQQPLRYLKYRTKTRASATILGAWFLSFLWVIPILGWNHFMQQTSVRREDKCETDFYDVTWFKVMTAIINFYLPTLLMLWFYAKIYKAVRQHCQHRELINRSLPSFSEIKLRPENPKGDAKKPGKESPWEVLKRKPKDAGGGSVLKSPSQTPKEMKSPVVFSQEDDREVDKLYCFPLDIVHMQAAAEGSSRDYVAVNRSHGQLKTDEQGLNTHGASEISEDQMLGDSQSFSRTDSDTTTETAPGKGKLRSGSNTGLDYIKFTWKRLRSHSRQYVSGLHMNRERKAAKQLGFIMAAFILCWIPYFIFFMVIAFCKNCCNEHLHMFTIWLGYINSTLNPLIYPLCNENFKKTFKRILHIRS

Histamine H3 receptor [27] = biological target: T1, Histamine H3 receptor; assay: Binding affinity to human H3R
Histamine H4 receptor [28] = biological target: T2, Histamine H4 receptor; assay: Antagonist activity at human H4R expressed in HEK293 cells incubated for 20 mins by [35S]GTPgammaS binding assay; assay type: functional, cell-based
[29] = biological target: T4, Voltage-gated inwardly rectifying potassium channel KCNH2; assay: Displacement of [3H]Dofetilide from human ERG human expressed in HEK293 cells incubated for 45 mins; assay type: cell-based
Histamine H3 receptor [30] = biological target: T1, Histamine H3 receptor; assay: Binding affinity to human H3R expressed in rat C6 cells; assay type: cell-based
Histamine H4 receptor [31] = biological target: T2, Histamine H4 receptor; assay: Binding affinity to human H4R

Structure (SMILES): c1ccc(-c2cccc(OCCCCCCN3CCCCC3)c2)cc1
Ki (Histamine H3 receptor [1]): 122 nM

Structure (SMILES): Clc1ccc(CCCOCCCN2CCCCC2)cc1 [PITOLISANT]
inhibition in vivo at 1.25 mg/kg (Rattus norvegicus [19]): 87%
IC50 [14]: 1700 nM

Structure (SMILES): O=C(O)C(=O)O.c1ccc(-c2ccc(OCCCCCN3CCCCCC3)cc2)cc1
Drug metabolism [20]: Metabolite_Detected
Drug metabolism [21]: Metabolite_Detected
Ki (Histamine H4 receptor [2]): 21800 nM
Retention_time [3]: 6.08 min
Activity (Cytochrome P450 3A4 [5]): Active
half-life [22]: 23.6 min
pKb [6]: 6.16
Drug metabolism [23]: Metabolite_Detected
Drug metabolism [7]: Metabolite_Detected
inhibition (INH) (Cytochrome P450 2D6): Active
CLint scaled [24]: 52.9 mL/min/kg
Retention_time [25]: 6 min
Ki (Histamine H3 receptor [1]): 34 nM
Activity [9]: Dose-dependent effect
Kb (Histamine H1 receptor [10]): 724 nM
Activity (Histamine H3 receptor [11]): Dose-dependent effect
IC50 (Histamine H3 receptor [11]): 9.08 nM
inhibition (INH) (Cytochrome P450 3A4 [12]): Not Active
Drug metabolism [15]: Metabolite_Detected
Drug metabolism [16]: Metabolite_Detected
Ki (Histamine H1 receptor [26]): 1270 nM
Drug metabolism [17]: Metabolite_Detected
ED50 (Rattus norvegicus [18]): 1.75 mg/kg
inhibition (Rattus norvegicus [18]): Dose-dependent effect

Structure (SMILES): c1ccc(CN(CC2=NCCN2)c2ccccc2)cc1 [ANTAZOLINE]
Kb (Histamine H1 receptor [10]): 72.4 nM

Structure (SMILES): COc1cccc2c1C(=O)c1c(O)c3c(c(O)c1C2=O)C[C@@](O)(C(=O)CO)C[C@@H]3O[C@H]1C[C@H](N)[C@H](O)[C@H](C)O1 [DOXORUBICIN]
IC50 (HepG2): 392 nM

Structure (SMILES): c1ccc(-c2cccc(OCCCCCN3CCCCC3)c2)cc1
Ki (Histamine H3 receptor [1]): 76 nM

Structure (SMILES): CN1[C@@H]2CC[C@H]1C[C@@H](OC(=O)C(CO)c1ccccc1)C2 (stereo partly drawn)
pKb [6]: 8.99

Structure (SMILES): CC(C)(C)c1ccc(OCCCN2CCCCC2)cc1
Ki (Histamine H3 receptor [1]): 131 nM

Structure (SMILES): c1ccc(-c2cccc(OCCCCCN3CCCCCC3)c2)cc1
Ki (Histamine H3 receptor [1]): 115 nM

Structure (SMILES): C[C@@H]1CCCN1[C@H]1C[C@H](c2ccc(-c3ccc(C#N)cc3)cc2)C1
Ki (Histamine H3 receptor [27]): 0.17 nM

Structure (SMILES): c1ccc(-c2cccc(OCCCCCCN3CCCCCC3)c2)cc1
Ki (Histamine H3 receptor [1]): 18 nM

Structure (SMILES): CN1C[C@H]2CCN(c3ccc(-c4ccc(-n5ncccc5=O)cc4)cc3)[C@H]2C1
Ki (Histamine H4 receptor [28]): > 10000 nM
Ki [29]: 8830 nM

Structure (SMILES): C[C@@H]1CC[C@@H](C)N1CCCOc1ccc(-c2ccc(C(=O)N3CCOCC3)cc2)cc1
Ki (Histamine H3 receptor [30]): 0.42 nM
Ki (Histamine H4 receptor [31]): > 10000 nM

Second part, led by results:

Ki (Histamine H3 receptor [1]): 92 nM
Structure (SMILES): c1ccc(-c2ccc(OCCCCCCN3CCCCC3)cc2)cc1

Ki (Histamine H3 receptor [1]): 151 nM
Structure (SMILES): c1ccc(-c2ccc(OCCCCCCN3CCCCCC3)cc2)cc1

Ki (Histamine H4 receptor [2]): 19900 nM
Retention_time [3]: 5.83 min
Activity (Cytochrome P450 3A4 [5]): Active
pKb [6]: 6.35
Drug metabolism [7]: Metabolite_Notdetected
inhibition (INH) (Cytochrome P450 2D6): Active
Ki (Histamine H3 receptor [1]): 25 nM
Activity [9]: Dose-dependent effect
Kb (Histamine H1 receptor [10]): 295 nM
Ratio Ki (Homo sapiens): 600
Activity (Histamine H3 receptor [11]): Dose-dependent effect
IC50 (Histamine H3 receptor [11]): 4.04 nM
inhibition (INH) (Cytochrome P450 3A4 [12]): Not Active
Drug metabolism [15]: Metabolite_Notdetected
Drug metabolism [16]: Metabolite_Notdetected
Drug metabolism [17]: Metabolite_Notdetected
Structure (SMILES): O=C(O)C(=O)O.c1ccc(-c2ccc(OCCCCCN3CCCCC3)cc2)cc1
selectivity ratio at 72 h [4]: > 30
IC50 (HepG2): 17200 nM
fold change (FC) [8]: < 2
fold change (FC) [13]: < 2
IC50 [14]: 1750 nM
ED50 (Rattus norvegicus [18]): 2.72 mg/kg
inhibition (Rattus norvegicus [18]): Dose-dependent effect

Ki (Histamine H3 receptor [1]): 157 nM
Structure (SMILES): CC1CCN(CCCCCOc2cccc(-c3ccccc3)c2)CC1

Ki (Histamine H3 receptor [1]): 159 nM
Structure (SMILES): CC1CCN(CCCCCCOc2cccc(-c3ccccc3)c2)CC1

Ki (Histamine H3 receptor [1]): 266 nM
Structure (SMILES): CC1CCN(CCCCCCOc2ccc(-c3ccccc3)cc2)CC1

Ki (Histamine H3 receptor [1]): 89 nM
Structure (SMILES): CC1CCN(CCCCCOc2ccc(-c3ccccc3)cc2)CC1
